ChEMBL document CHEMBL5241095, “Developments of CRBN-based PROTACs as potential therapeutic agents” (Eur J Med Chem, 2021)

Target: Protein cereblon/Peptidyl-prolyl cis-trans isomerase FKBP1A (Homo sapiens, UniProt P62942+Q96SW2)
Assay: Protac activity at CRBN/FKBP12 in human Jurkat cells
Assay type: cell-based

Sequence of Protein cereblon/Peptidyl-prolyl cis-trans isomerase FKBP1A (P62942 whole entry): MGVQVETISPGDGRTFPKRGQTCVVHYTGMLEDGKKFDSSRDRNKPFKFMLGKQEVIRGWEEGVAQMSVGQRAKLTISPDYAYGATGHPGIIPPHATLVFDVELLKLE
Sequence of Protein cereblon/Peptidyl-prolyl cis-trans isomerase FKBP1A (Q96SW2 whole entry): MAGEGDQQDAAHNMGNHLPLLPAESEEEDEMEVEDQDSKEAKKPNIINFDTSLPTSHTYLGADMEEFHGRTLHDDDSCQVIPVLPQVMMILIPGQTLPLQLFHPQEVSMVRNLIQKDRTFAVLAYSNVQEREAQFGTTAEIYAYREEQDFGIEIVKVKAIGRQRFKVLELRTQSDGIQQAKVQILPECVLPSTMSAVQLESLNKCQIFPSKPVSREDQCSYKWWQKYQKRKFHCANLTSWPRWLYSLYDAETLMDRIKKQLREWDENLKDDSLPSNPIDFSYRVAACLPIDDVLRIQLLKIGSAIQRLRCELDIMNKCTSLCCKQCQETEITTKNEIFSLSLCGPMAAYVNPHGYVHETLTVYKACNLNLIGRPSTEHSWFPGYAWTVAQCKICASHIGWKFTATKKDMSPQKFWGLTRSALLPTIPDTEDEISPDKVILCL

DC50: 0.3 nM
SMILES: COC1C(=O)[C@H](C)C[C@H](C)/C=C/C=C/C=C(\C)[C@@H](OC)C[C@@H]2CC[C@@H](C)[C@@](O)(O2)C(=O)C(=O)N2CCCC[C@H]2C(=O)O[C@H]([C@H](C)C[C@@H]2CC[C@@H](OCCOCc3cn(CCOCCOCCNc4cccc5c4C(=O)N(C4CCC(=O)NC4=O)C5=O)nn3)[C@H](OC)C2)CC(=O)[C@H](C)/C=C(\C)[C@H]1O (stereo partly specified)
